The results in this text go back to patent publication US8716296B2 (Ingenium Pharmaceuticals GmbH, priority 2007, dated 2014).

Data set [1] has as its system LPS induced THP-1 macrophages. The data set is described as follows: In vitro THP-1 assay, model of cytokine inhibition. To be noted: differentiated THP-1 cells, 60 min pre-incubation, LPS 4-48 h, ELISA, versus vehicle (DMSO). It counts as cell-based, human. On the procedure: The human THP-1 cell line can be utilized as an in vitro model of cytokine expression as mediated by Lipopolysaccharide (LPS) or Tumor Necrosis Factorα [TNFα].
Monocytic THP-1 cells (ATCC; TIB-202) can be differentiated into macrophage-like cells expressing pro-inflammatory cytokines like TNFα, IL6 and IL1β upon induction with LPS or by TNFα (autocrine induction) itself.
THP-1 cells are grown in modified RPMI-1640 medium (ATCC, Cat. No. 30-2001) supplemented with 10% FCS and 1% Pen/Strep. For cytokine inhibition assays, cells are seeded at a density of 5×10^5 cells/ml into 6-well plates in standard growth medium supplemented with 100 ng/ml PMA (Sigma, P1585) to induce differentiation into macrophage-like cells. After 24 hours, the medium is replaced with standard growth medium (without PMA) and the cells are incubated for another 48 hours to complete differentiation.
After 72 h of differentiation, the medium is replaced with serum free growth medium, and CDK-inhibiting compounds as well as reference compounds such as positive and negative controls, each dissolved in DMSO are added at concentrations ranging from 0.5 to 5 μM (final concentration of DMSO in the well is 0.1%). Cells are incubated for 60 min with compounds prior to stimulation with 100 ng/ml LPS (Sigma, L2630) for another 4-48 hours. Supernatants are collected and assayed immediately for cytokine expression, e.g. for TNFα, IL-6 and IL-1b using commercially available sandwich ELISA assays (eBioscience, Cat. No 88-7346, 88-7066, 88-7010) or kept frozen at […] until evaluation.
Concentrations of TNFα, IL6 and IL1β within the cell culture supernatants are measured by using commercial ELISA Kits (eBioscience) according to the manufacturers instructions.
CDK-inhibitory compounds #1A, 16A, 20A, and 25A were administered to differentiated THP-1 cells in triplicates as described above (see section 2.). After 60 min of pre-incubation with test or reference compound (SB203580, a p38 inhibitor and BMS345541, an IKK-inhibitor) alone, cells were stimulated with LPS. After incubation for 4-48 h, supernatants were collected and ELISA based determinations of cytokine supernatant concentrations were performed as described in section 3, supra.

Where a name gives a salt, the structure may show the parent alone.

Regarding `CCOc1ccccc1-c1cc(NC(=O)C2CCC(=O)NC2)ncn1` (centres unmarked) [Example 15, N-(6-(2-ethoxyphenyl)pyrimidin-4-yl)-6-oxopiperidine-3-carboxamide], the melting point (in general, the temperature, or range, at which the solid turns liquid) was found to be 117 °C. In turn, `COc1ccc(F)cc1-c1cc(NC(=O)C2(C(N)=O)CC2)ncn1` [Example 10, N-(6-(5-fluoro-2-methoxyphenyl)pyrimidin-4-yl)cyclopropane-1,1-dicarboxamide] returned a melting point of 190 °C. On the same count and under the same terms, under `COc1ccc(F)cc1-c1cc(NC(=O)C2CCCCN2)ncn1` (centres unmarked) (as salt: TFA) [Example 37, N-(6-(5-fluoro-2-methoxyphenyl)pyrimidin-4-yl)piperidine-2-carboxamide*TFA] stands 122 °C; under `COc1cc(F)ccc1-c1cc(NC(=O)C2CCC(=O)NC2)ncn1` (centres unmarked) [Example 14, N-(6-(4-fluoro-2-methoxyphenyl)pyrimidin-4-yl)-6-oxopiperidine-3-carboxamide], 148 °C; under `COc1ccc(F)cc1-c1cc(NC(=O)c2cnn3cc(C)cnc23)ncn1` [Example 59, N-(6-(5-fluoro-2-methoxyphenyl)pyrimidin-4-yl)-6-methylpyrazolo[1,5-a]pyrimidine-3-carboxamide], 265 °C. As for `CCCN1N=C(C(=O)Nc2cc(-c3cc(F)ccc3OC)ncn2)CCC1=O` [Example 11, N-(6-(5-fluoro-2-methoxyphenyl)pyrimidin-4-yl)-1,4,5,6-tetrahydro-6-oxo-1-propylpyridazine-3-carboxamide], the melting point was found to be 200 °C. Same read-out and setting: under `COc1ccc(F)cc1-c1cc(NC(=O)[C@H]2CCCC[C@H]2N)ncn1.Cl` [Example 46, (1S,2R)-2-amino-N-(6-(5-fluoro-2-methoxyphenyl)pyrimidin-4-yl)cyclohexanecarboxamide*HCl] stands 272 °C. Still for that read-out and setting: under `COc1ccc(F)cc1-c1cc(NC(=O)C2CCCNC2=O)ncn1` (centres unmarked) [Example 41, N-(6-(5-fluoro-2-methoxyphenyl)pyrimidin-4-yl)-2-oxopiperidine-3-carboxamide] stands 180 °C; under `COc1ccc(F)cc1-c1cc(NC(=O)C2CCC(N)CC2)ncn1` (centres unmarked) (as salt: TFA) [Example 38, 4-amino-N-(6-(5-fluoro-2-methoxyphenyl)pyrimidin-4-yl)cyclohexanecarboxamide*TFA], 162 °C. Same read-out and setting: the result for `COc1ccc(F)cc1-c1cc(NC(=O)C2CC(=O)NC(=O)C2)ncn1` [Example 19, N-(6-(5-fluoro-2-methoxyphenyl)pyrimidin-4-yl)-2,6-dioxopiperidine-4-carboxamide] reads 160 °C. In turn, `COc1ccc(F)cc1-c1cc(NC(=O)c2cc(=O)[nH]c3ccccc23)ncn1` [Example 60, N-(6-(5-fluoro-2-methoxyphenyl)pyrimidin-4-yl)-1,2-dihydro-2-oxoquinoline-4-carboxamide] registered a melting point of 276 °C. Regarding `COc1ccc(F)cc1-c1cc(NC(=O)C2CCOCC2)ncn1` [Example 39, N-(6-(5-fluoro-2-methoxyphenyl)pyrimidin-4-yl)-tetrahydro-2H-pyran-4-carboxamide], the melting point is 155 °C. Still for that read-out and setting: the result for `CCOc1ccc(F)cc1-c1cc(NC(=O)C2CCC(=O)NC2)ncn1` (centres unmarked) [Example 16, N-(6-(2-ethoxy-5-fluorophenyl)pyrimidin-4-yl)-6-oxopiperidine-3-carboxamide] reads 208 °C.

For `CCOc1cc(F)ccc1-c1cc(NC(=O)C2CCC(=O)NC2)ncn1` (centres unmarked) [Example 24, N-(6-(2-ethoxy-4-fluorophenyl)pyrimidin-4-yl)-6-oxopiperidine-3-carboxamide], the melting point came out at 222 °C. In turn, `COc1ccccc1-c1cc(NC(=O)[C@@H]2CCCNC2)ncn1` [Compound 18A, (R)-Piperidine-3-carboxylic acid [6-(2-methoxy-phenyl)-pyrimidin-4-yl]-amide] registered a melting point of 210 to 213 °C. `CCc1cc(C(=O)Nc2cc(-c3cc(F)ccc3OC)ncn2)no1` [Example 58, 5-ethyl-N-(6-(5-fluoro-2-methoxyphenyl)pyrimidin-4-yl)isoxazole-3-carboxamide] showed a melting point of 175 °C. Same read-out and setting: the result for `COc1ccc(F)cc1-c1cc(NC(=O)C2CNC(=O)C2)ncn1` (centres unmarked) [Example 18, N-(6-(5-fluoro-2-methoxyphenyl)pyrimidin-4-yl)-5-oxopyrrolidine-3-carboxamide] reads 222 °C. The compound `CC(C)Oc1cc(F)ccc1-c1cc(NC(=O)C2CCC(=O)NC2)ncn1` (centres unmarked) [Example 25, N-(6-(4-fluoro-2-isopropoxyphenyl)pyrimidin-4-yl)-6-oxopiperidine-3-carboxamide] showed a melting point of 105 °C. For `COc1ccccc1-c1cc(NC(=O)C(C)(C)C)ncn1` [Compound 25A, N-[6-(2-methoxy-phenyl)-pyrimidin-4-yl]-2,2-dimethyl-propionamide], in data set [1], the “IL6 protein concentration in the cell supernatant” value is given as “significant inhibitory effect” and the “TNFα protein concentration in the cell supernatant” value is recorded as “significant inhibitory effect”. `COc1ccc(F)cc1-c1cc(NC(=O)C(=O)c2ccccc2)ncn1` [Example 61, N-(6-(5-fluoro-2-methoxyphenyl)pyrimidin-4-yl)-2-oxo-2-phenylacetamide] registered a melting point of 146 °C. On the same count and under the same terms, under `COc1ccc(F)cc1-c1cc(NC(=O)Cc2cc(F)c(F)cc2F)ncn1` [Example 62, N-(6-(5-fluoro-2-methoxyphenyl)pyrimidin-4-yl)-2-(2,4,5-trifluorophenyl)acetamide] stands 208 °C. Same read-out and setting: the result for `COc1ccc(F)cc1-c1cc(NC(=O)c2cc(C)on2)ncn1` [Example 55, N-(6-(5-fluoro-2-methoxyphenyl)pyrimidin-4-yl)-5-methylisoxazole-3-carboxamide] reads 170 °C; that for `COc1ccc(F)cc1-c1cc(NC(=O)C2CCNC(=O)C2)ncn1` (centres unmarked) [Example 40, N-(6-(5-fluoro-2-methoxyphenyl)pyrimidin-4-yl)-2-oxopiperidine-4-carboxamide], 225 °C. Still for that read-out and setting: under `COc1ccccc1-c1cc(NC(=O)C2CCCNC2)nc(C)n1` (centres unmarked) [Compound 22A, piperidine-3-carboxylic acid [6-(2-methoxy-phenyl)-2-methyl-pyrimidin-4-yl]-amide] stands 229 to 230 °C; under `COc1ccccc1-c1cc(NC(=O)[C@H]2CCCNC2)ncn1` [Compound 17A, (S)-Piperidine-3-carboxylic acid [6-(2-methoxy-phenyl)-pyrimidin-4-yl]-amide], 163 to 165 °C; under `COc1ccc(F)cc1-c1cc(NC(=O)C2CCC(=O)NC2)ncn1` (centres unmarked) [Example 17, N-(6-(5-fluoro-2-methoxyphenyl)pyrimidin-4-yl)-6-oxopiperidine-3-carboxamide], 245 °C. `CCc1ccc(C(=O)Nc2cc(-c3cc(F)ccc3OC)ncn2)nc1` [Example 56, 5-ethyl-N-(6-(5-fluoro-2-methoxyphenyl)pyrimidin-4-yl)pyridine-2-carboxamide]: the melting point came to 176 °C. In the case of `CC(C)Oc1ccc(F)cc1-c1cc(NC(=O)C2CCC(=O)NC2)ncn1` (centres unmarked) [Example 26, N-(6-(5-fluoro-2-isopropoxyphenyl)pyrimidin-4-yl)-6-oxopiperidine-3-carboxamide], the melting point worked out at 236 °C.
